Reference: patent publication US20240301319A1, “PERFUMING COMPOSITIONS” (FIRMNICH SA, priority 2017, published 2024)

Columns and labels:
[1] = Odor threshold and odor value of perfuming compounds (Tables 4 to 10)
[2] = Volatility of perfuming compounds (Tables 4 to 10), with top/middle/bottom note type; format: physicochemical
In short: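 Note type follows from air volatility (μg/l): bottom 49–0.1, middle 99–50, top 70,000–100. Compounds are listed within watery, green, fruity, citrus, sweet, gourmand and woody families.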

[3] = perfuming compounds having a green note
[4] = note type (Top/Middle/Bottom) by volatility, perfuming compounds having a green note
[5] = Table 6, perfuming compounds having a fruity note
[6] = Table 6, perfuming compounds having a fruity note, note type by volatility
[7] = Table 7, citrus note, equals volatility divided by odor threshold
[8] = Table 7, citrus note, top, middle or bottom note
[9] = Table 8, perfuming compounds having a sweet note
[10] = Table 4, watery note, equals volatility divided by odor threshold
[11] = Table 4, watery note, top, middle or bottom note

Molecule | Odor Threshold (μg/l air) [1, 3] | Type [2, 4] | Volatility (μg/l air) [2, 3] | Odor Threshold (μg/l air) ([1]; Table 7, citrus note) | Odor Value [1, 7] | Volatility (μg/l air) ([2]; Table 7, citrus note) | Type [2, 8] | other results
CCCCCCCC=O [OCTANAL] | 2.77E−04 μg/l air | Top | 4147.61 μg/l air |  |  |  |  | 
COc1nccnc1CC(C)C [PYRAZOBUTYLE] | 7.20E−07 μg/l air | Top | 1617.21 μg/l air |  |  |  |  | 
O=Cc1ccc2c(c1)OCO2 [benzo[d][1,3]dioxole-5-carbaldehyde] |  |  |  |  |  |  |  | Odor Threshold ([1]; Table 9, gourmand note): 1.01E−04 μg/l air; Volatility ([2]; Table 9, gourmand note): 61.82 μg/l air; Type ([2]; Table 9, perfuming compounds having a gourmand note, note type by volatility): Middle
CCCCC/C=C\C=C\C(=O)OCC [ethyl (2E,4Z)-2,4-decadienoate] | 3.07E−04 μg/l air | Bottom | 36.76 μg/l air |  |  |  |  | Odor Threshold [1, 5]: 3.07E−04 μg/l air; Odor Value [1, 5]: 1.20E+05; Volatility [2, 5]: 36.76 μg/l air; Type [2, 6]: Bottom
CCCCCCCC(=O)OCC [ethyl octanoate] | 5.30E−03 μg/l air | Top | 800.05 μg/l air |  |  |  |  | 
CCCCCCCOC(C)=O [heptyl acetate] |  |  |  | 1.32E−01 μg/l air | 2.14E+04 | 2814.34 μg/l air | Top | Volatility [2, 5]: 2814.34 μg/l air; Type [2, 6]: TOP (perfuming compounds having a volatility ranging from 70,000 to 100 μg/l in air are referred to as “top notes”)
CCCCCC=O [hexanal] | 1.76E−03 μg/l air | Top | 68294.85 μg/l air | 1.76E−03 μg/l air | 3.88E+07 | 68294.85 μg/l air | Top | 
CCCCCCOC(=O)C(C)C [hexyl 2-methylpropanoate] | 7.15E−01 μg/l air | Top | 1661.18 μg/l air |  |  |  |  | Volatility [2, 5]: 1661.18 μg/l air; Type [2, 6]: TOP (perfuming compounds having a volatility ranging from 70,000 to 100 μg/l in air are referred to as “top notes”)
C/C=C(\C)C(=O)OCCCCCC [hexyl (2E)-2-methyl-2-butenoate] | 1.16E−02 μg/l air | Top | 256.81 μg/l air |  |  |  |  | Odor Threshold [1, 9]: 1.16E−02 μg/l air; Odor Value [1, 9]: 2.22E+04; Volatility [2, 5]: 256.81 μg/l air; Type [2, 6]: TOP (perfuming compounds having a volatility ranging from 70,000 to 100 μg/l in air are referred to as “top notes”); Volatility [2, 9]: 256.81 μg/l air; Type ([2]; Table 8, perfuming compounds having a sweet note, note type by volatility): Top
CCCCCC/C=C/C(=O)OC [methyl (2E)-2-nonenoate] | 5.84E−02 μg/l air | Top | 264.84 μg/l air |  |  |  |  | Volatility [2, 5]: 264.84 μg/l air; Type [2, 6]: TOP (perfuming compounds having a volatility ranging from 70,000 to 100 μg/l in air are referred to as “top notes”)
CCCCCCCCC=O [nonanal] | 8.14E−03 μg/l air | Top | 2777.63 μg/l air | 8.14E−03 μg/l air | 3.41E+05 | 2777.63 μg/l air | Top | 
CCCCCCCCOC(C)=O [octyl acetate] |  |  |  | 1.76E−01 μg/l air | 3.78E+03 | 666.51 μg/l air | Top | Volatility [2, 5]: 666.51 μg/l air; Type [2, 6]: TOP (perfuming compounds having a volatility ranging from 70,000 to 100 μg/l in air are referred to as “top notes”)
CCCCCCCCCCC=O [undecanal] |  |  |  |  |  |  |  | Odor Threshold (μg/l air) ([1]; Table 4, watery note): 1.65E−03 μg/l air; Odor Value [1, 10]: 1.08E+05; Volatility (μg/l air) ([2]; Table 4, watery note): 178.29 μg/l air; Type [2, 11]: TOP (perfuming compounds having a volatility ranging from 70,000 to 100 μg/l in air are referred to as “top notes”)
(1S,4S,9S,10R,13R)-5,5,9,13-tetramethyl-14,16-dioxatetracyclo[11.2.1.0~1,10~.0~4,9~]hexadecane (A) + (1R,4S,9S,10R,13S)-5,5,9,13-tetramethyl-14,16-dioxatetracyclo[11.2.1.0~1,10~.0~4,9~]hexadecane (B) |  |  |  |  |  |  |  | Odor Threshold (μg/l air) ([1]; Table 4, watery note): 4.36E−04 μg/l air; Odor Value [1, 10]: 1.55E+04; Volatility (μg/l air) ([2]; Table 4, watery note): 6.77 μg/l air; Type [2, 11]: bottom (perfuming compounds having a volatility ranging from 49 to 0.1 μg/l in air are referred to as “bottom notes”)
(2R)-2-methyl-4-[(1R)-2,2,3-trimethyl-3-cyclopenten-1-yl]-4-pentenal (A) + (2S)-2-methyl-4-[(1R)-2,2,3-trimethyl-3-cyclopenten-1-yl]-4-pentenal (B) |  |  |  |  |  |  |  | Odor Threshold (μg/l air) ([1]; Table 4, watery note): 2.22E−03 μg/l air; Odor Value [1, 10]: 2.86E+04; Volatility (μg/l air) ([2]; Table 4, watery note): 63.49 μg/l air; Type [2, 11]: middle (perfuming compounds having a volatility ranging from 99 to 50 μg/l in air are referred to as “middle notes”)
(2RS,4SR)-4-methyl-2-phenyltetrahydro-2H-pyran (A) + (2RS,4RS)-4-methyl-2-phenyltetrahydro-2H-pyran (B) |  |  |  | 1.04E−03 μg/l air | 9.61E+04 | 99.84 μg/l air | Middle | 
(3Z)-1,3-undecadien-5-yne (A) + (3E)-1,3-undecadien-5-yne (B) |  |  |  | 3.32E−03 μg/l air | 2.98E+05 | 990.87 μg/l air | Top | 
(+−)-3-(4-hydroxy-4-methylpentyl)-3-cyclohexene-1-carbaldehyde (A) + (+−)-4-(4-hydroxy-4-methylpentyl)-3-cyclohexene-1-carbaldehyde (B) |  |  |  |  |  |  |  | Odor Threshold (μg/l air) ([1]; Table 4, watery note): 8.81E−05 μg/l air; Odor Value [1, 10]: 7.92E+03; Volatility (μg/l air) ([2]; Table 4, watery note): 0.70 μg/l air; Type [2, 11]: bottom (perfuming compounds having a volatility ranging from 49 to 0.1 μg/l in air are referred to as “bottom notes”)
(+−)-3-(4-methyl-3-penten-1-yl)-3-cyclohexene-1-carbaldehyde (A) + (+−)-4-(4-methyl-3-penten-1-yl)-3-cyclohexene-1-carbaldehyde (B) |  |  |  |  |  |  |  | Odor Threshold (μg/l air) ([1]; Table 4, watery note): 3.68E−03 μg/l air; Odor Value [1, 10]: 5.85E+03; Volatility (μg/l air) ([2]; Table 4, watery note): 21.54 μg/l air; Type [2, 11]: bottom (perfuming compounds having a volatility ranging from 49 to 0.1 μg/l in air are referred to as “bottom notes”)
(A) + (+−)-3,5,6,6-tetramethyl-4-methylidene-2-heptanone (B) + (+−)-(4E)-3,4,5,6,6-pentamethyl-4-hepten-2-one (C) + (+−)-(3Z)-3,4,5,6,6-pentamethyl-3-hepten-2-one (D) + (+−)-(3E)-3,4,5,6,6-pentamethyl-3-hepten-2-one (E) |  |  |  | 7.24E−02 μg/l air | 9.11E+03 | 659.22 μg/l air | Top | 
(Z)-3,7-DIMETHYL-1,6-NONADIEN-3-OL (A) + (E)-3,7-DIMETHYL-1,6-NONADIEN-3-OL (B) |  |  |  | 1.38E−03 μg/l air | 2.05E+05 | 283.43 μg/l air | Top | 
(Z)-3,7-DIMETHYL-2,6-OCTADIENAL (A) + (E)-3,7-DIMETHYL-2,6-OCTADIENAL (B) |  |  |  | 4.12E−03 μg/l air | 4.92E+04 | 202.66 μg/l air | Top | 
(−)-(1S)-2,6,6-TRIMETHYL-BICYCLO[3.1.1]HEPT-2-ENE | 1.02E−01 μg/l air | Top | 33722.60 μg/l air |  |  |  |  | 
ALLYL (3-METHYLBUTOXY)ACETATE (A) + (+−)-ALLYL (2-METHYLBUTOXY)ACETATE (B) |  |  |  | 9.89E−05 μg/l air | 2.65E+06 | 261.90 μg/l air | Top | 
CITRONELLOL (A) + GERANIOL (B) |  |  |  | 7.69E−04 μg/l air |  | 89.88 μg/l air | Middle | 
